# Earlier results, collected in patent US20050226899A1, “Cosmetic mask composition” (priority 2004, published 2005).
# Tested on: skin
# Details: lotion, up to 5% by weight retinoic acid
smiles,measurement,value
CC1=C(/C=C/C(C)=C/C=C/C(C)=C/C(=O)O)C(C)(C)CCC1 [retinoic acid],irritative phenomena,some treatments had to be interrupted due to the onset of significant irritative phenomena
